In publication PMC8279415, “Targeting Acute Myelogenous Leukemia Using Potent Human Dihydroorotate Dehydrogenase Inhibitors Based on the 2-Hydroxypyrazolo[1,5-a]pyridine Scaffold: SAR of the Biphenyl Moiety” (Journal of Medicinal Chemistry, 2021):
≈ marks a conversion by molar mass, not a printed value. Entries after “also recorded” stand apart in the source; their conditions may differ. Like-named read-outs stand apart in the source and are kept apart here.

Tests used:
[1] = LogD7.4, shake-flask n-octanol/PBS; conditions: n-octanol/PBS, pH 7.4
Protocol: The partition coefficients between n-octanol and PBS at pH 7.4 (LogD^7.4) were obtained using the shake-flask technique at room temperature. In the shake-flask experiments, 50 mM phosphate buffered saline, pH 7.4, was used as the aqueous phase. The organic (n-octanol) and aqueous phases were mutually saturated by shaking for 4 h. The compounds were solubilized in the buffered aqueous phase at the highest concentration compatible with solubility, and appropriate amounts of n-octanol were added. The two phases were shaken for about 20 min, by which time the partitioning equilibrium of solutes had been reached, and then centrifuged (10 000 rpm, 10 min). The concentration of the solutes was measured in the aqueous phase using a UV spectrophotometer (Varian Cary 50BIO); absorbance values (recorded for each compound at the wavelength of maximum absorption) were interpolated in calibration curves obtained using standard solutions of the compounds (r^2 > 0.99). Each log D value is an average of at least six measurements.

[2] = target: T1, recombinant hDHODH (Homo sapiens, UniProt Q02127); test: hDHODH inhibition assay (DCIP reduction); type: biochemical
T1 construct: made in house; host or cells: E. coli BL21DE3 PyrD
T1 sequence (Q02127 whole entry): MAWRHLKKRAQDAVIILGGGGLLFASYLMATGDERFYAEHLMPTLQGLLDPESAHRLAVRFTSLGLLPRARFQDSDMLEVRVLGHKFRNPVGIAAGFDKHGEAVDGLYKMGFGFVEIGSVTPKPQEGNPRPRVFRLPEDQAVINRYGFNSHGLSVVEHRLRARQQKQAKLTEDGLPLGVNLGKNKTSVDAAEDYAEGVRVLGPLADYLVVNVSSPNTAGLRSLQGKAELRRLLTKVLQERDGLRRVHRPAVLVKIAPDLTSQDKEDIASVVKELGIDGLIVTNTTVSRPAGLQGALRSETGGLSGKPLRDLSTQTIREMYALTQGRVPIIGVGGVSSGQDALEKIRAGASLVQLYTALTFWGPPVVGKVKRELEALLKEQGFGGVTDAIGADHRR
Protocol: BL21DE3 PyrD E. coli cells were transformed using the plasmid construct pFN2A–hDHODH (kindly given by Department of Drug Science and Technology, University of Turin, Turin, Italy). The vector produces hDHODH as an N-terminal GST-fusion protein. Cells were grown at 37 °C in LB medium supplemented with 0.1 mM flavin mononucleotide (Cayman Chemical). […] Triton X-100 was added to the lysate, to a final concentration of 1%, before centrifugation at 14 000g for 40 min at 4 °C. The clarified supernatant was incubated with DNase I for 30 min at room temperature, supplemented with 2 mM dithiothreitol (DTT), and filtered through a 0.45 μm syringe filter as previously described by Sainas et al.[18] The GST-fused enzyme was purified from the bacterial lysate using affinity chromatography on immobilized glutathione-Sepharose columns (GE- […]). The GST tag was not cleaved for further analysis. All the reagents used in the protein expression and purification were supplied by Merck/Sigma-Aldrich if not otherwise specified.
The enzymatic inhibition assay was optimized for being performed on a 96-well plate and to achieve higher throughput. For each well of the plate a total volume of 200 μL was used: 5 μL of purified GST-hDHODH; 60 μL of 2,6-dichloroindophenol (DCIP) 50 μM; 20 μL of coenzyme Q10 enzyme 100 μM; 20 μL of dihydroorotate (DHO) 500 μM; Tris-HCl, pH 8, up to a final volume of 200 μL. Inhibitory activity was assessed by monitoring the reduction of DCIP, which is associated with the oxidation of dihydroorotate as catalyzed by the DHODH enzyme. The enzyme was preincubated for 5 min at 37 °C in Tris-HCl, pH 8, with coenzyme Q10, with DCIP (50 μM), and with the compounds to be tested used at different concentrations (final DMSO concentration 0.1% v/v). The reaction was initiated by the addition of DHO (500 μM), and the absorbance kinetic reduction was monitored at λ = 650 nm using a multiplate reader (Tecan, M1000Pro). In order to assess the minimum and maximum absorbance values of the enzymatic reaction, a Min control value was obtained by measuring the absorbance without DHO. Similarly, a Max value was obtained by measuring the absorbance with DHO but no inhibitor. A blank reduction calculation was also performed by measuring the absorbance values using 180 μL of Tris-HCl and 20 μL of coenzyme Q10. The instrument was set to read the absorbance values every 10 s for a total read time of 10 min at 37 °C. […] Values are the mean ± SE of three independent experiments.

[3] = Protein binding in vitro (ultrafiltration); type: in vitro ADME; conditions: male, human serum, 37 °C, read-out: protein binding (% bond) (converted)
Protocol: This was achieved via ultrafiltration using commercially available membrane systems (Centrifree ultrafiltration devices with ultracel YM-T membrane, Merck). […] 1 mL of the solution obtained in the sample reservoir of the ultrafiltration device was gently shaken in an orbital shaker at 37 °C for 1 h. […] The concentrations of the compounds in the ultrafiltrate and filtrate were determined using reverse-phase UHPLC, and the chromatographic conditions were those described above with different injection volumes: 20 μL for ultrafiltrate samples and 2 μL for filtrate samples.

[4] = tested on: THP1 cells; test: Fixed-concentration screening of differentiation (CD14) and apoptosis (annexin V) in THP1, with or without uridine; type: cell-based, human
Protocol: DMSO (dimethyl sulfoxide) acts as the negative control group as it was used to solubilize hDHODH inhibitors. ∗, ∗∗, ∗∗∗ represent the statistical significance for apoptosis (respectively p < 0.05, < 0.01, and <0.001). #, ##, and ### represent the statistical significance for differentiation (respectively p < 0.05, <0.01, and <0.001). The statistical significance is calculated by comparing the compounds to DMSO.
The statistical significance is calculated by comparing the compounds to DMSO.

[5] = tested on: THP1 cells; test: Annexin V apoptosis assay in THP1; conditions: Homo sapiens
[6] = Solubility assay at pH 7.4 in PBS; type: physicochemical; conditions: pH 7.4, 25 °C, 24 h, LOD 6 μM; for solubility at 24 h: phosphate buffered saline
Protocol: These suspensions were filtered through a PTFE 0.45 μm filter (VWR), and the solutions were chromatographically analyzed using a PerkinElmer ultrahigh performance liquid chromatography (UHPLC) instrument, equipped with a reverse-phase (RP) C18 Phenomenex column (2.1 mm × 100 mm, 1.7 μm particle size). […] The flow rate was 0.5 mL/min. Standard injection volumes were either 2 or 4 μL for poorly soluble compounds. The detection system was a PerkinElmer diode array detector. The wavelengths that were monitored for each compound were defined according to the compound’s own absorption spectrum. Solubility, expressed as μM concentration of the saturated solution, was calculated via interpolation with external calibration curves that were obtained with solutions of each compound in acetonitrile.

[7] = tested on: U937 cells; test: Differentiation assay (CD11b expression) in U937; conditions: Homo sapiens, U-937, 72 h, read-out: differentiation EC50 U937 (CL 95%)
[8] = tested on: U937 cells; test: Annexin V apoptosis assay in U937; conditions: Homo sapiens, U-937, 72 h, read-out: apoptosis EC50 U937 (CL 95%)
[9] = tested on: Jurkat cells; test: CFSE-based cytotoxic activity assay; conditions: concentration inducing cytotoxicity ≥30%, 3 days
[10] = tested on: THP1 cells; test: Differentiation assay (CD14 expression) in THP1; conditions: Homo sapiens
[11] = In vitro metabolic profile in rat-liver microsomes; type: in vitro ADME
Protocol: SyGMa (systematic generation of potential metabolites) software, a tool that lists predicted metabolites with associated empirical probability scores, was used to identify putative metabolites, which were then investigated by analyzing samples with liquid chromatography coupled to high-resolution mass spectrometry (HPLC–HRMS). […] The full-scan MS data acquired for all of the samples were analyzed to find the m/z values of the predicted molecular structures. In order to exclude interfering signals, the results obtained were compared to blank samples and common background peaks were not considered.
Rat-liver microsomes (Sprague-Dawley, male, Sigma-Aldrich; 20 mg/mL protein concentration) were incubated with the candidate compound solution (5 μM final concentration, with 1% DMSO) and Tris buffer (0.1 M, pH = 7.4). The regenerating system, which slowly generated coenzyme units over the incubation time, leading to a better reproduction of in vivo behavior, was composed of MgCl2 (3.3 mM), NADP^+ (1.3 mM), Glu6P (3.5 mM), and Glu6P dehydrogenase (0.5 U/mL).
The incubation time started with the addition of the microsomes suspension (0.5 mg/mL).
Metabolic reactions were stopped by adding 100 μL of cooled acetonitrile to the 100 μL sample of the incubation mixture. Samples were centrifuged to provoke protein precipitation, and the supernatants were immediately stocked at −80 °C, until analysis, to prevent the potential degradation of unstable products.
The products of in vitro metabolism were identified using a high-resolution mass spectrometer (Q-Exactive Orbitrap, Thermo Scientific) coupled to an HPLC instrument (1200 system Agilent). All analytes were separated on an Ascentis C18 column (150 mm × 2.1 mm, 5 μm particle size) maintained at 35 °C. The elution mixture was composed of solvent A (0.1% formic acid in water for positive ionization mode and 0.05% acetic acid for negative ionization mode) and solvent B (acetonitrile). […] MS2-DIA scans were acquired at R = 17 500 and with variable collision energies ranging from 30 to 45, depending on the m/z of the parent ion.

[12] = cited from earlier work
[13] = cited from earlier work; remark: listed apart in the source
[14] = design: method as in doi:10.1158/1538-7445.AM2019-2; conditions: cited from earlier work
[15] = mean ± SE of three independent experiments, read-out: hDHODH, IC50 ± SE
[16] = supplementary CSV, values differ from Table 2, read-out: hDHODH IC50 ± SE (supplement CSV)
[17] = THP-1, 72 h, read-out: apoptosis EC50 THP1 (CL 95%)
[18] = THP-1, read-out: Apoptosis EC50 (C.L.95%) (supplement CSV)
[19] = THP-1, 72 h, read-out: differentiation EC50 THP1 (CL 95%)
[20] = THP-1, read-out: Differentiation EC50 (C.L.95%) (supplement CSV)

| Structure (SMILES) | logD [1] | IC50 [2, 15] [nM] | IC50 [2, 16] [nM] | fraction unbound at 1 h, 50 µM [3] | EC50 [5, 17] [nM] | EC50 [5, 18] [nM] | solubility at 24 h [6] [µM] | EC50 [7] [nM] | activity in cells (differentiation and apoptosis) ([4]; THP1, 0.1 μM) | EC50 [8] [nM] | cytoxicity Jurkat (effect ≥30% ± SD) [9] [µM] | EC50 [10, 19] [nM] | EC50 [10, 20] [nM] | also measured |
| --- | --- | --- | --- | --- | --- | --- | --- | --- | --- | --- | --- | --- | --- | --- |
| O=C(Nc1c(F)c(F)c(-c2cccnc2)c(F)c1F)c1c(O)nn2ccccc12 [Compound 8, 2-Hydroxy-N-(2,3,5,6-tetrafluoro-4-(pyridin-3-yl)phenyl)pyrazolo[1,5-a]pyridine-3-carboxamide] | 0.98 ± 0.03 | 6.23 ± 0.63 | 7.19 ± 0.19 | 0.0042 |  |  |  |  |  |  |  |  |  | activity in cells (differentiation and apoptosis) ([4]; THP1, 1 μM): basically inactive |
| O=C(Nc1c(F)c(F)c(-c2cccc(F)c2)c(F)c1F)c1c(O)nn2ccccc12 [Compound 11, 2-Hydroxy-N-(2,3,3′,5,6-pentafluoro-[1,1′-biphenyl]-4-yl)pyrazolo[1,5-a]pyridine-3-carboxamide] | 2.09 ± 0.04 | 2.03 ± 0.44 | 2.37 ± 0.35 | 0.0004 | 250 | 222 | < 6 | 40.7 | highly active | 68.2 | 39 ± 3 | 67.6 | 58.9 | solubility in PBS [6]: <LOD |
| O=C(Nc1c(F)c(F)c(-c2cccc(OC(F)(F)F)c2)c(F)c1F)c1c(O)nn2ccccc12 [Compound 15, 2-Hydroxy-N-(2,3,5,6-tetrafluoro-3′-(trifluoromethoxy)-[1,1′-biphenyl]-4-yl)pyrazolo[1,5-a]pyridine-3-carboxamide] | 3.27 ± 0.19 |  | 2.62 ± 0.79 |  | 39.6 | 32.6 | 8.1 (≈ 3.93 µg/mL) | 8.6 | highly active | 35.3 | >100 | 31.5 | 28 | metabolites identified in sample C ([11]; active rat-liver microsomes and regenerating system, HPLC-HRMS): did not identify appreciable concentration of metabolites; parent compound recovered ([11]; rat-liver microsomes with regenerating system, 2 h incubation): 100%; metabolic stability ([11]; rat-liver microsomes, 2 h): metabolically stable; also recorded: good metabolic stability |
| COc1cccc(-c2c(F)c(F)c(NC(=O)c3c(O)nn4ccccc34)c(F)c2F)c1 [Compound 16, 2-Hydroxy-N-(2,3,5,6-tetrafluoro-3′-methoxy-[1,1′-biphenyl]-4-yl)pyrazolo[1,5-a]pyridine-3-carboxamide] |  |  | 1.47 ± 0.33 | 0.0005 | 37.9 | 29.6 | 74.3 (≈ 32 µg/mL) | 31.1 | highly active | 42.8 | 68 ± 7 | 31.2 | 26.9 |  |
| COc1cccc(-c2cc(F)c(Nc3ncccc3C(=O)O)c(F)c2)c1 [ASLAN003] |  |  |  |  |  |  |  |  |  |  |  |  |  | protein binding (% bond) [12]: >99[25] % |
| O=C(Nc1c(F)c(F)c(-c2cccc(C(F)(F)F)c2)c(F)c1F)c1c(O)nn2ccccc12 [Compound 13, 2-Hydroxy-N-(2,3,5,6-tetrafluoro-3′-(trifluoromethyl)-[1,1′-biphenyl]-4-yl)pyrazolo[1,5-a]pyridine-3-carboxamide] | 2.69 ± 0.03 | 6.34 ± 0.63 | 3.01 ± 0.37 | 0.0006 | 51.1 | 42.9 | < 6 | 34.2 | highly active | 60 | >100 | 38.3 | 32 | solubility in PBS [6]: <LOD |
| Cc1c(-c2ccc(-c3ccccc3F)cc2)nc2ccc(F)cc2c1C(=O)O [Brequinar, reference compound] |  |  |  | 0.0117 |  |  |  |  |  |  |  |  |  |  |
| CCn1c(CO)nn(-c2cc(O[C@@H](C)C(F)(F)F)c(C(=O)Nc3c(F)cccc3Cl)cc2F)c1=O [BAY-2402234, reference compound] |  |  |  |  | 3.4 |  |  |  |  |  | 36 ± 4 | 2.4 |  | LogD^7.4 [13]: 2.7[27]; solubility in PBS [14]: <1[31] μM |
